These results are taken from publication PMC10104807, “Modulation of tau tubulin kinases (TTBK1 and TTBK2) impacts ciliogenesis” (Scientific Reports, 2023).

SMILES strings stand for the structures. pIC50: −log10 of the molar value. Several values for one entry are separate records, joined by “and”; a condition that tells them apart may be missing. Equal values may be shown once. Read-outs that look alike come from different tables or passages of the source.

What all share (assay): Eurofins enzymatic radiometric kinase assay
What all share (format): biochemical

For one experiment, the target named is T1, TAOK2 (Homo sapiens, UniProt Q9UL54).
T1 construct: purchased Eurofins
T1 sequence (Q9UL54 1-1235): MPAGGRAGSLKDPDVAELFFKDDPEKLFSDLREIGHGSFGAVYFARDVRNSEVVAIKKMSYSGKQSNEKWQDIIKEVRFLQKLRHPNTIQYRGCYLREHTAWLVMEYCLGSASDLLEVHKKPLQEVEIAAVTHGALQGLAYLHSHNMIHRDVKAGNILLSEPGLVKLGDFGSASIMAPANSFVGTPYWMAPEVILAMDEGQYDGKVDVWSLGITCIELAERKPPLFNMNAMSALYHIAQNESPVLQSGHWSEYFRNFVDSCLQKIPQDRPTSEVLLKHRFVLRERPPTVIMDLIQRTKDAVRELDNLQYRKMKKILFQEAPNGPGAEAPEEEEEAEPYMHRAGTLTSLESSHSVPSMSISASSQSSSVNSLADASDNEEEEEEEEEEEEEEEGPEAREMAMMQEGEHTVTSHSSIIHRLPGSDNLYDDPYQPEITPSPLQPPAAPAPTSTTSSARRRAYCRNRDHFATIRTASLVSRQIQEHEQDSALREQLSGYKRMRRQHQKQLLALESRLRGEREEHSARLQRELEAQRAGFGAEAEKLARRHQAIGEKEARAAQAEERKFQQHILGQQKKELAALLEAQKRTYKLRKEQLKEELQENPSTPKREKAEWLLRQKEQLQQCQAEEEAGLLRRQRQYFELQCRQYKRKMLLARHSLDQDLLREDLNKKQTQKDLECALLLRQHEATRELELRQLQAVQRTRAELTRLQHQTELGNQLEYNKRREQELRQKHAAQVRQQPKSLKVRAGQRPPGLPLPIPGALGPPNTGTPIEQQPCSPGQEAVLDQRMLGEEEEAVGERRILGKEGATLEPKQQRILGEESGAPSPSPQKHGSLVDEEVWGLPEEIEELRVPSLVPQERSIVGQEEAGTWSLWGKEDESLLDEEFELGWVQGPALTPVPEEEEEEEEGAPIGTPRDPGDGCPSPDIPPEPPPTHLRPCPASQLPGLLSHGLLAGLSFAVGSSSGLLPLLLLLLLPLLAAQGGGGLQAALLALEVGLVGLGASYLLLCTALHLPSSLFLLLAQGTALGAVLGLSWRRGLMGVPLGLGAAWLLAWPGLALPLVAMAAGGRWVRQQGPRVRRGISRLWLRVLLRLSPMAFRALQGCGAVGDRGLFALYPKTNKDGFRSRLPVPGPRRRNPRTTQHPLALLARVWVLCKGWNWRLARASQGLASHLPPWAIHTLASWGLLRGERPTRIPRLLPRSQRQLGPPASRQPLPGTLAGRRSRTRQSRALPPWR
As to conditions: ATP at Km, duplicate. The protocol: (§1) The column labeled “# < 10 PoC in enzyme panel” in Table 1 reports the number of kinases in this 17-member panel inhibited > 90% by each analog.
(§2) Details about the substrate used, protein constructs, controls, and assay protocol for these kinase assays are available at the Eurofins website: https://www.eurofinsdiscoveryservices.com. Reaction Biology Corp. (RBC) radiometric HotSpot kinase assays were carried out at the Km value for ATP in dose–response (10-pt curve) format for MYLK4, RIPK5, and YSK4 in Table S2. Details about the substrate used, protein constructs, controls, and assay protocol for these kinase assays are available at the RBC website: https://www.reactionbiology.com/list-kinase-targets-us-facility. SignalChem developed an ADP-Glo assay to test for enzymatic inhibition of PIKfyve in dose–response (10-pt curve) format in duplicate.

The next experiment has as its target T2, TSSK1 (Homo sapiens, UniProt Q9BXA7).
T2 construct: purchased Eurofins (radiometric) / Eurofins DiscoverX scanMAX / Reaction Biology / SignalChem
T2 sequence (Q9BXA7 1-367): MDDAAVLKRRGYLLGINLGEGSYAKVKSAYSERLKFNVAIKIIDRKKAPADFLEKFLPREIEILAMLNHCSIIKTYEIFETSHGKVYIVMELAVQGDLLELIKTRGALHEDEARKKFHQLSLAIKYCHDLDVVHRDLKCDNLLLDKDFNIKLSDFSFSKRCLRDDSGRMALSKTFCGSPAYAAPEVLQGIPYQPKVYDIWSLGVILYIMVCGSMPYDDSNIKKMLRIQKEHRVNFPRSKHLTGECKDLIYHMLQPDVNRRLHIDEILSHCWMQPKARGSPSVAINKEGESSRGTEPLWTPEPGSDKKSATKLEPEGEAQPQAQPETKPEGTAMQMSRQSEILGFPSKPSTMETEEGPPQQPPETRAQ
Particulars: ATP at Km, duplicate. The protocol: as §1, §2

The next experiment deals with T3, TSSK2 (Homo sapiens, UniProt Q96PF2).
T3 construct: purchased Eurofins (radiometric) / Eurofins DiscoverX scanMAX / Reaction Biology / SignalChem
T3 sequence (Q96PF2 1-358): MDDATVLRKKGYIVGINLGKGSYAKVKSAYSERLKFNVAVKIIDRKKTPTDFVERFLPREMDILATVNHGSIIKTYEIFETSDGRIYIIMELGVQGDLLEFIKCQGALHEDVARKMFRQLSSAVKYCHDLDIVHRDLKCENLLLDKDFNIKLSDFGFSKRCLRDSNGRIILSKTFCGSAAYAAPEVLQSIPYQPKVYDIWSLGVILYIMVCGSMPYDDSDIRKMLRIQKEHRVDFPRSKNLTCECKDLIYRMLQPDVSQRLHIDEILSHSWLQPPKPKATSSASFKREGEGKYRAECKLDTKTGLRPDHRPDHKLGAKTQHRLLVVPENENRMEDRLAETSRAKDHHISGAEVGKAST
Particulars: ATP at Km, duplicate. The protocol:
as §1, §2

The next experiment concerns the target T4, TTBK1 (Homo sapiens, UniProt Q5TCY1).
T4 construct: purchased Eurofins
Particulars: for TTBK1 PoC: 1 μM, duplicate, lower = greater inhibition. The protocol: as §1, §2

T4 sequence (Q5TCY1 whole entry): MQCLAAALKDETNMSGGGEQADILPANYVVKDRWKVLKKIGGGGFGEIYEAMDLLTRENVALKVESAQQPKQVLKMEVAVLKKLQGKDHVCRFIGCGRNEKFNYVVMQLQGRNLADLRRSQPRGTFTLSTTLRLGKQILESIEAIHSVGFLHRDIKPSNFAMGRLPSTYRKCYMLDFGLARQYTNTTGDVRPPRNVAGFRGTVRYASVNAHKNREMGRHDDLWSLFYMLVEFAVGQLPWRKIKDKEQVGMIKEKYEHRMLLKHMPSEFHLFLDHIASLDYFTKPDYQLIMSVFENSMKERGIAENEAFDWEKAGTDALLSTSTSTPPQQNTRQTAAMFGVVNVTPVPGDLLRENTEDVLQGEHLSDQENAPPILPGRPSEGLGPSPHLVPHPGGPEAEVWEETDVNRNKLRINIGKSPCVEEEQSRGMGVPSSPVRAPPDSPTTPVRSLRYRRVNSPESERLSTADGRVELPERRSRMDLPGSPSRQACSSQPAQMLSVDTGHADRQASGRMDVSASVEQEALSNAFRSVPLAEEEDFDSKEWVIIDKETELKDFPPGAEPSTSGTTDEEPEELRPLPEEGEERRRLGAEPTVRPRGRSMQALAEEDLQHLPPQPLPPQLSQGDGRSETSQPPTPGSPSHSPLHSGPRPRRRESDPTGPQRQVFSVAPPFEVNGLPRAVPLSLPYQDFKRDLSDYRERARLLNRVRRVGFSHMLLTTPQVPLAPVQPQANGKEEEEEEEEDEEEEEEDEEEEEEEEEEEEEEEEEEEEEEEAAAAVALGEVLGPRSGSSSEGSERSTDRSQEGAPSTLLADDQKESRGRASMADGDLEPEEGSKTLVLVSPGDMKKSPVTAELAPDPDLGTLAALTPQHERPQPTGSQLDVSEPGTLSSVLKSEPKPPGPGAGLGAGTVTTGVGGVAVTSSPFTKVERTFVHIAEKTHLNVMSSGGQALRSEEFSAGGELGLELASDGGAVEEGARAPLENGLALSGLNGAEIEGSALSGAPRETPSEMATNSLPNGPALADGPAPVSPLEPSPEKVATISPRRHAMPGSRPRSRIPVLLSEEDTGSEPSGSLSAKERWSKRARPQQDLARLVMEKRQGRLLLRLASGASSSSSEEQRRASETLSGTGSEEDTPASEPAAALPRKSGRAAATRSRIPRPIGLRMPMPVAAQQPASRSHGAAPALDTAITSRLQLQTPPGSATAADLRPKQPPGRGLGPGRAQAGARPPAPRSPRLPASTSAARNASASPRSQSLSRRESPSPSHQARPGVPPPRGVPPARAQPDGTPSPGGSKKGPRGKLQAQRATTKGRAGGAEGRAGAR

In the case of `CC(C)(O)C#Cc1ccc2[nH]c3c(c2c1)-c1nc(N)ncc1CCC3` [AMG28, reference compound], the “TAOK2 PoC at 1 μM” value on TAOK2 is on record as 26 PoC. Besides, the “TSSK1 PoC at 1 μM” value on TSSK1 was 10 PoC. Moreover, the “TSSK2 PoC at 1 μM” value at TSSK2 came to 57 PoC.

For `CC(C)(O)C#Cc1ccc2[nH]c3c(c2c1)-c1nc(N)ncc1CC3` [Compound 1], the “TAOK2 PoC at 1 μM” value on TAOK2 is reported as 28 PoC. Besides, the “TSSK1 PoC at 1 μM” value on TSSK1 was 48 PoC. Moreover, the “TSSK2 PoC at 1 μM” value on TSSK2 is on record as 88 PoC. The negative-log IC50 (pIC50) (as a rule, the negative decadic logarithm of the IC50, by convention in mol/L) was less than 6.00 at TTBK1 and 5.50 on TTBK1 (ATP at Km, dose–response 9-pt curve). The “TTBK1 PoC” value at TTBK1 (ATP at Km) stood at 78 PoC.

Consider `CC(C)(O)C#Cc1ccc2[nH]c3c(c2c1)-c1nc(N)ncc1CCCC3` [Compound 2], for which the “TAOK2 PoC at 1 μM” value at TAOK2 was found to be 83 PoC. Besides, the “TSSK1 PoC at 1 μM” value at TSSK1 stood at 82 PoC. For the same compound, the “TSSK2 PoC at 1 μM” value on TSSK2 is 76 PoC. On TTBK1 (ATP at Km), the “TTBK1 PoC” value is 92 PoC and 92/NT^[c] PoC.

As for `CC(C)(O)C#Cc1ccc2[nH]cc(-c3ccnc(N)n3)c2c1` [Compound 3], the “TAOK2 PoC at 1 μM” value on TAOK2 came to 12 PoC. In addition, the “TSSK1 PoC at 1 μM” value on TSSK1 was determined as 30 PoC. Besides, the “TSSK2 PoC at 1 μM” value at TSSK2 amounted to 78 PoC. Further, the “TTBK1 PoC” value at TTBK1 (ATP at Km) is reported as 43 PoC.

On to `COC(C)(C)C#Cc1ccc2[nH]c3c(c2c1)-c1nc(N)ncc1CCC3` [Compound 11], for which, at TAOK2, the “TAOK2 PoC at 1 μM” value was found to be 44 PoC. Further, at TSSK1, the “TSSK1 PoC at 1 μM” value is 89 PoC. The “TSSK2 PoC at 1 μM” value at TSSK2 is given as 86 PoC. Further, the “TTBK1 PoC” value at TTBK1 (ATP at Km) is 117 PoC and 117/NT PoC.
